Tests used:
Bristol Stool Chart = format: in vivo, human; conditions: for Bristol Stool: GLU condition, mean ± SD
Text: The remainder of the study consisted of two identical patterns of testing with the exception of what supplementation protocol was followed. FIG. 1 provides a flowchart of the experimental design. Prior to each visit, food and physical activity logs were completed encompassing four days prior to the scheduled laboratory visit. The four days consisted of two weekend days and two weekdays. Each participant reported to the laboratory for a baseline measurement of height, weight, heart rate, and blood pressure. During this visit, participants completed the Bristol Stool Chart and Gastrointestinal Symptom Rating Scale (GSRS) to assess bowel habits and potential gastrointestinal symptoms. Participants were given instructions on how to collect a stool sample and were instructed to do so within 24 hours of each planned study visit. At the completion of this study visit, participants were provided with their first assigned supplement (either PLA [placebo] or GLU [glucosamine]) and instructed to begin supplementation 21 days prior to their second visit. Participants were instructed to collect their second stool sample on the day of their final supplementation dose. On the morning of their second study visit, participants reported to the laboratory after following identical pre-study instructions as previous visits (i.e., fasting, abstention from caffeine and exercise). Study participants again completed assessments for height, weight, heart rate, blood pressure, and questionnaires regarding their bowel habits and gastrointestinal symptoms while also providing their second stool sample and turning in completed food and activity logs. A washout period lasting a minimum of 14 days and a maximum of 21 days separated each phase of the crossover as shown in FIG. 1. […] In a double-blind manner, a glucosamine supplement (GLU) or a maltodextrin placebo (PLA) was distributed in identical opaque capsules to all participants. On a daily basis, participants were instructed to ingest three capsules, each containing 1,000 mg of glucosamine hydrochloride (GlucosaGreen®, TSI Group Ltd. MT, USA) or a placebo (maltodextrin) identical in appearance for a total of 21 days. Each visit at the beginning of the supplementation regimen (Visits 1 and 4, respectively; See FIG. 1) occurred on or before the first day of supplementation while the final day of supplementation occurred the day before each participant's follow-up visit for that study period (Visits 2 and 4, respectively). Participants were instructed to ingest the supplement 15-30 minutes before breakfast with eight fluid ounces of cold water. In the case of a missed dose, participants were instructed to consume the missed dose as soon as possible with a meal. […]

[1] = Gastrointestinal Symptom Rating Scale (GSRS); format: in vivo, human; conditions: for Abdom Pain (combined score of GSRS 1, GSRS4, and GSRS5) / Diarrhea (combined score of GSRS11 and GSRS14) / GSRS1 Pain and discomfort in upper abdomen or stomach / GSRS2 Heartburn / GSRS3 Acid reflux / GSRS4 Hunger pangs / GSRS5 Nausea / GSRS6 Stomach rumbling / GSRS7 Stomach bloating / GSRS8 Burping / GSRS9 Passing gas or flatulence / GSRS11 Diarrhea / GSRS14 Urgent need to have a bowel movement / GSRS15 Sensation of not completely emptying the bowels / Ingestion (combined score of GSRS6, GSRS7, GSRS8, and GSRS9) / Reflux (combined score of GSRS2 and GSRS3) / Constipation (combined score of GSRS10, GSRS13, and GSRS14), 'Constipation Syndrome' / GSRS10 Constipation / GSRS13 Hard stools: GLU condition, mean ± SD; for Constipation (combined score of GSRS10, GSRS13, and GSRS14), 'Constipation Syndrome' / GSRS10 Constipation / GSRS13 Hard stools: hydrochloride
Text: The remainder of the study consisted of two identical patterns of testing with the exception of what supplementation protocol was followed. FIG. 1 provides a flowchart of the experimental design. Prior to each visit, food and physical activity logs were completed encompassing four days prior to the scheduled laboratory visit. The four days consisted of two weekend days and two weekdays. Each participant reported to the laboratory for a baseline measurement of height, weight, heart rate, and blood pressure. During this visit, participants completed the Bristol Stool Chart and Gastrointestinal Symptom Rating Scale (GSRS) to assess bowel habits and potential gastrointestinal symptoms. Participants were given instructions on how to collect a stool sample and were instructed to do so within 24 hours of each planned study visit. At the completion of this study visit, participants were provided with their first assigned supplement (either PLA [placebo] or GLU [glucosamine]) and instructed to begin supplementation 21 days prior to their second visit. Participants were instructed to collect their second stool sample on the day of their final supplementation dose. On the morning of their second study visit, participants reported to the laboratory after following identical pre-study instructions as previous visits (i.e., fasting, abstention from caffeine and exercise). Study participants again completed assessments for height, weight, heart rate, blood pressure, and questionnaires regarding their bowel habits and gastrointestinal symptoms while also providing their second stool sample and turning in completed food and activity logs. A washout period lasting a minimum of 14 days and a maximum of 21 days separated each phase of the crossover as shown in FIG. 1. […] In a double-blind manner, a glucosamine supplement (GLU) or a maltodextrin placebo (PLA) was distributed in identical opaque capsules to all participants. On a daily basis, participants were instructed to ingest three capsules, each containing 1,000 mg of glucosamine hydrochloride (GlucosaGreen®, TSI Group Ltd. MT, USA) or a placebo (maltodextrin) identical in appearance for a total of 21 days. Each visit at the beginning of the supplementation regimen (Visits 1 and 4, respectively; See FIG. 1) occurred on or before the first day of supplementation while the final day of supplementation occurred the day before each participant's follow-up visit for that study period (Visits 2 and 4, respectively). Participants were instructed to ingest the supplement 15-30 minutes before breakfast with eight fluid ounces of cold water. In the case of a missed dose, participants were instructed to consume the missed dose as soon as possible with a meal. […] The dose of maltodextrin used in the following examples was two to five-fold lower, respectively, than these investigations. Participants completed electronic (Qualtrics, Inc.) versions of the Bristol Stool Chart and the Gastrointestinal Symptoms Rating Scale (GSRS) at four time points throughout the entire study protocol. The first two questionnaires were completed before and after the first supplementation period while the final two questionnaires were collected before and after the second supplementation period. The Bristol Stool Chart requires participants to classify their bowel movements into one of seven different types of stool. Type 1 was classified as being “Separate hard lumps, like nuts (hard to pass)”, Type 2 being “Sausage-shaped, lumpy, uncomfortable to pass”, Type 3 being “Like a sausage, with cracks on its surface”, Type 4 being “Like a sausage or snake, smooth and soft”, Type 5 being “Soft blobs with clear-cut edges, passes easily”, Type 6 being “Fluffy pieces with ragged edges, a mushy stool”, and Type 7 being “Watery, no solid pieces, entirely liquid”. The Gastrointestinal Symptoms Rating Scale (GSRS), a 15-item clinical rating scale was completed a total of four times to assess symptoms related to gastrointestinal distress during the past week. […]

[2] = Post 21 days, 3 x 1,000 mg/day oral

For `Cl.N[C@H]1C(O)O[C@H](CO)[C@@H](O)[C@@H]1O` (some centres unmarked) [GLU, glucosamine hydrochloride], the “Bristol Stool” value (Bristol Stool Chart; [2]) was 3.6 ± 0.8, the “Bristol Stool” value (Bristol Stool Chart; Pre (baseline)) was 3.3 ± 0.8 and the “Bristol Stool, %” value (Bristol Stool Chart; PLA vs. GLU, between-group) was −19.9%. The “Changes in Bristol Stool chart ratings within group” value (Bristol Stool Chart; Post vs Pre, p=0.10) was “no significant changes”, the “Abdom Pain (combined score of GSRS 1, GSRS4, and GSRS5)” value [1, 2] was 4.18 ± 1.66 and the “Diarrhea (combined score of GSRS11 and GSRS14)” value [1, 2] was 3.27 ± 1.56. For the same compound, the “GSRS1 Pain and discomfort in upper abdomen or stomach” value [1, 2] was 1.5 ± 0.7, the “GSRS2 Heartburn” value [1, 2] was 1.2 ± 0.4 and the “GSRS3 Acid reflux” value [1, 2] was 1.2 ± 0.4. The “GSRS4 Hunger pangs” value [1, 2] was 1.18 ± 0.4, the “GSRS5 Nausea” value [1, 2] was 1.55 ± 1.21 and the “GSRS6 Stomach rumbling” value [1, 2] was 2.2 ± 1.3. For the same compound, the “GSRS7 Stomach bloating” value [1, 2] was 2.1 ± 1.22, the “GSRS8 Burping” value [1, 2] was 1.2 ± 0.4 and the “GSRS9 Passing gas or flatulence” value [1, 2] was 2.46 ± 1.21. For the same compound, the “GSRS11 Diarrhea” value [1, 2] was 1.73 ± 1.56, the “GSRS14 Urgent need to have a bowel movement” value [1, 2] was 1.55 ± 0.93 and the “GSRS15 Sensation of not completely emptying the bowels” value [1, 2] was 1.09 ± 0.3. The “Ingestion (combined score of GSRS6, GSRS7, GSRS8, and GSRS9)” value [1, 2] was 7.91 ± 2.98, the “Reflux (combined score of GSRS2 and GSRS3)” value [1, 2] was 2.36 ± 0.67 and the “Constipation (combined score of GSRS10, GSRS13, and GSRS14), 'Constipation Syndrome'” value [1, 2] was 3.27±0.9. For the same compound, the “GSRS10 Constipation” value [1, 2] was 1.09±0.3, the “GSRS13 Hard stools” value [1, 2] was 1.09±0.3 and the “Abdom Pain (combined score of GSRS 1, GSRS4, and GSRS5)” value ([1]; Pre (baseline)) was 4.27 ± 1.68. For the same compound, the “Diarrhea (combined score of GSRS11 and GSRS14)” value ([1]; Pre (baseline)) was 2.27 ± 0.9, the “GSRS1 Pain and discomfort in upper abdomen or stomach” value ([1]; Pre (baseline)) was 1.2 ± 0.4 and the “GSRS2 Heartburn” value ([1]; Pre (baseline)) was 1.1 ± 0.3. The “GSRS3 Acid reflux” value ([1]; Pre (baseline)) was 1.0 ± 0.0, the “GSRS4 Hunger pangs” value ([1]; Pre (baseline)) was 1.82 ± 0.98 and the “GSRS5 Nausea” value ([1]; Pre (baseline)) was 1.27 ± 0.9. For the same compound, the “GSRS6 Stomach rumbling” value ([1]; Pre (baseline)) was 1.5 ± 0.69, the “GSRS7 Stomach bloating” value ([1]; Pre (baseline)) was 1.9 ± 1.22 and the “GSRS8 Burping” value ([1]; Pre (baseline)) was 1.2 ± 0.4. For the same compound, the “GSRS9 Passing gas or flatulence” value ([1]; Pre (baseline)) was 1.82 ± 0.75, the “GSRS11 Diarrhea” value ([1]; Pre (baseline)) was 1.0 ± 0.0 and the “GSRS14 Urgent need to have a bowel movement” value ([1]; Pre (baseline)) was 1.27 ± 0.9. The “GSRS15 Sensation of not completely emptying the bowels” value ([1]; Pre (baseline)) was 1.73 ± 1.1, the “Ingestion (combined score of GSRS6, GSRS7, GSRS8, and GSRS9)” value ([1]; Pre (baseline)) was 6.45 ± 2.5 and the “Reflux (combined score of GSRS2 and GSRS3)” value ([1]; Pre (baseline)) was 2.09 ± 0.3. For the same compound, the “Constipation (combined score of GSRS10, GSRS13, and GSRS14), 'Constipation Syndrome'” value ([1]; Pre (baseline)) was 5.09±3.45, the “GSRS10 Constipation” value ([1]; Pre (baseline)) was 1.82±1.4 and the “GSRS13 Hard stools” value ([1]; Pre (baseline)) was 1.55±1.04. For the same compound, the “Abdom Pain combined score, %” value ([1]; PLA vs. GLU, between-group) was 4.2%, the “Constipation combined score, %” value ([1]; PLA vs. GLU, between-group) was −33.3% and the “Diarrhea combined score, %” value ([1]; PLA vs. GLU, between-group) was 30.6%. For the same compound, the “GSRS1, %” value ([1]; PLA vs. GLU, between-group) was 31.3%, the “GSRS2, %” value ([1]; PLA vs. GLU, between-group) was −0.9% and the “GSRS3, %” value ([1]; PLA vs. GLU, between-group) was 20.0%. The “GSRS4, %” value ([1]; PLA vs. GLU, between-group) was −11.3%, the “GSRS5, %” value ([1]; PLA vs. GLU, between-group) was 35.4% and the “GSRS6, %” value ([1]; PLA vs. GLU, between-group) was 37.6%. The “GSRS7, %” value ([1]; PLA vs. GLU, between-group) was −30.7%, the “GSRS8, %” value ([1]; PLA vs. GLU, between-group) was −10% and the “GSRS9, %” value ([1]; PLA vs. GLU, between-group) was 8.8%. For the same compound, the “GSRS10, %” value ([1]; PLA vs. GLU, between-group) was −64.9%, the “GSRS11, %” value ([1]; PLA vs. GLU, between-group) was 55.0% and the “GSRS13, %” value ([1]; PLA vs. GLU, between-group) was −15.5%. The “GSRS14, %” value ([1]; PLA vs. GLU, between-group) was 13.0%, the “GSRS15, %” value ([1]; PLA vs. GLU, between-group) was −23.8% and the “Ingestion combined score, %” value ([1]; PLA vs. GLU, between-group) was −0.4%. The “Reflux combined score, %” value ([1]; PLA vs. GLU, between-group) was 8.4% and the “Stomach bloating ratings (GSRS7), change from baseline” value ([1]; Post vs Pre, p=0.32) was “no changes were observed”.

Source: patent US20220395522A1, “Methods of Use of Glucosamine for Increasing Nitrogen Retention” (TSI Bioproducts (Xuzhou) Co., Ltd., priority 2021, published 2022)
